Test results reported in patent US10350168B2, “Dermal delivery compositions comprising active agent-calcium phosphate particle complexes and methods of using the same” (Laboratory Skin Care, Inc., priority 2009, dated 2019).
“And” between values parts separate entries of the source, which are not always exact repeats. Identical values can stand only once.

How the values were obtained:
[1] = Optimum pH for producing active agent-calcium phosphate complexes; format: physicochemical
Text: In the following tables, the specific solvent systems are examples of solvent systems that may be used.

[2] = Influence of solvent on binding of Adapalene to calcium phosphate particles (UV 319 nm); format: physicochemical
Description: (§1) • Calcium phosphate particles • Adapalene, Sekhsaria Chemicals Limited, India • DMSO, Fisher Scientific, Product No. D159-4 • Ethanol, Fisher Scientific, Product No. AC61511-0010 Methods: • i. […] The suspensions were mixed for 30 min, and centrifuged at 2000×g for 10 min in a bench top centrifuge. • iv. The absorbance of supernatants were measured at 319 nm (the detection wavelength for Adapalene) by UV spectrophotometer. • v. […]

[3] = Adapalene saturated solutions in ethanol and DMSO; format: physicochemical
Description: as §1

[4] = Stability (activity) of ascorbic acid at 50° C. with and without calcium phosphate particles; format: physicochemical; details: for activity of ascorbic acid, 2 um: bound to 2 μm calcium phosphate particles; for activity of ascorbic acid, Control: without calcium phosphate particles
Description: 11.9 mg of ascorbic acid was dissolved in 30 ml of water. 2 g of 2 μm calcium phosphate particles were suspended in 19.5 ml of water and the pH was adjusted to pH 7.14 with HCl. 0.5 ml of ascorbic acid solution (0.40 mg/ml) was mixed in the suspension of calcium phosphate particles, which reduced the pH to 7.05. The suspension (pH 7.05) of calcium phosphate particles including 10 μg/ml of ascorbic acid was incubated at 50° C. for 0.5 to 5 hours. The heat-denaturation of ascorbic acid was terminated by cooling the suspension in an ice bath for 15 minutes. In order to release bound ascorbic acid from calcium phosphate particles to measure the stabilization effect, the pH of each suspension was adjusted to pH 5 with HCl and centrifuged at 3,000 rpm for 10 minutes. The supernatant obtained was measured at 265 nm. As a control, a 10 μg/ml of ascorbic acid solution was also incubated and measured by the same procedures without calcium phosphate particles. The activity of ascorbic acid was calculated by the following formula: The activity of ascorbic acid (%)=(A265nm of the supernatant after incubation/A265nm of the ascorbic acid before incubation)×100 The same procedures were repeated with 10 μm calcium phosphate particles. b. Results

[5] = Tape-stripping analysis of topical application of active-calcium phosphate complexes; format: in vivo; details: human forearm, ten tape strips
Description: The purpose of this study was to detect the distribution of actives in the stratum corneum following topical application of the active-calcium phosphate particles • Method: The distribution of STAY C50 within the stratum corneum was assessed by serial tape stripping of the skin to which a STAY C50-calcium phosphate particle formulation was applied. An application site on the forearm of a human subject was marked and 200 μl of the formulation spread by spatula. The site was allowed to dry for 10 minutes and then followed by ten pre-weighed tape stripping using strips of (3 in^2) applied to the application site. STAY C50 was extracted from the tape strips by sonicating the samples in water for 30 minutes and analyzing the samples by HPLC. […] An application site on the forearm of a human subject was marked and 200 μl of the formulation spread by spatula. The site was allowed to dry for 10 minutes and then followed by ten pre-weighed tape stripping using strips of (3 in^2) applied to the application site. Lysozyme was extracted from the tape strips by sonicating the samples in water for 30 minutes and analyzing the samples by HPLC. Lysozyme was detected to a depth of 6 tape strips (FIG. 10). 5. Controlled Slow Release of Active Agents by Franz Cell • Purpose: The purpose of this study was to detect riboflavin from riboflavin attached to calcium phosphate particles. […]

[6] = Influence of pH on binding of Salicylic acid to calcium phosphate particles (UV 297 nm); format: physicochemical
Description: • Calcium phosphate particles • Salicylic acid, Fisher Scientific, Part No. A277-500 Methods: • i. 23.2 mg of Salicylic acid was dissolved in 1 ml of ethanol. • ii. 4 g of calcium phosphate particles were suspended in 39.8 ml of water and the pH was adjusted close to the targeted pH with HCl. • iii. 0.2 ml of Salicylic acid solution (23.2 mg/ml) was mixed in the suspension of calcium phosphate particles. • iv. The pH was adjusted to each of the target pH values (11.36, 8.34, 7.47, 7.07, 5.99) with HCl. • v. At each pH, a 4.8 ml sample was taken from the suspension. All the samples were centrifuged separately at 2000×g for 10 min. • vi. The absorbance of supernatant was measured at 297 nm (the detection wavelength for Salicylic acid) by UV spectrophotometer. • vii. […]

[7] = Sodium Tocopheryl Phosphate binding to and release from calcium phosphate particles (UV 286 nm); format: physicochemical
Description: • Calcium phosphate particles • Sodium Tocopheryl Phosphate (TPNa), Showa Denko KK • Ethanol, Fisher Scientific, Product No. AC615090020 Methods: • i. 20 mg of TPNa was dissolved in 40 ml of water by gently mixing (0.5 mg/ml). • ii. 3 g of calcium phosphate particles was mixed with 30 ml of TPNa solution at 0.5 mg/ml, and mixed for 30 min. • iii. The binding suspension was centrifuged at 2000×g for 10 min. The supernatant was transferred to new tube, and centrifuge again at 2000×g for 10 min to clarify. The final supernatant was analyzed with an UV spectrophotometer at 286 nm to quantitate free TPNa and calculate the binding. Approximately 100% of TPNa in the binding suspension was attached to calcium phosphate particles. • iv. The pellet of TPNa calcium phosphate complex was re-suspended in 60% ethanol to release the bound TPNa. • v. The release suspension in 60% ethanol was centrifuged at 2000×g for 10 min. The supernatant was analyzed with an UV spectrophotometer at 286 nm to quantitate free TPNa released.

[8] = Argireline binding to calcium phosphate particles with or without sodium lauryl sulfate pretreatment; format: physicochemical
Description: • Argireline to calcium phosphate particles was pretreated with sodium lauryl sulfate Materials: • Calcium phosphate particles • Argireline, (Acetyl Hexapeptide-8), Lipotec S.A. • Sodium lauryl sulfate (SLS), Colonial Chemical, Inc. Methods: • i. Argireline was dissolved in water as a 10 mg/ml solution. • ii. Calcium phosphate particles were mixed with 10 ml of 0.1% SLS for 5 min. […] The pellet was re-suspended in 20 ml water, centrifuged at 2000×g for 10 min, and the washing supernatant was discarded. The washing step was repeated twice. The water contained in the pellet was determined. The final pellet was used in the binding study. • iii. Calcium phosphate particles (SLS treated or no SLS treatment) were mixed with water. HCl (or NaOH) was added to adjust the pH of Calcium phosphate particles suspension to targeted pH including neutral and pH˜10. • iv. Argireline stock at 10 mg/ml was added to each binding suspensions to be a final concentration of 0.5 mg/ml. After the suspension was mixed for 30 min, the final pH was measured. • v. The binding suspensions were centrifuged at 2000×g for 10 min in the bench top centrifuge. The supernatants were analyzed with Refractive Index detector connected to the Shimadzu HPLC 20A system to quantify the free Argireline in the solution. A size-exclusion HPLC method was developed to quantify Argireline in the supernatants of the binding mixtures. […] The mobile phase was 100% water, and eluted at a rate of 1 ml/min. The eluent was monitored at 205 nm or by a refractive index detector (Shimadzu, Model No. RID-10A). Argireline was observed as a major peak in the chromatogram with retention time of about 14 min. The quantification of Argireline was achieved by external standard calibration. • vi. The Argireline bound was then calculated by subtracting the amount of Argireline detected in the supernatant from the total initial amount in the binding suspension.

[9] = Lysozyme binding to calcium phosphate particles (UV 280 nm); format: physicochemical; details: pH 6.83
Description: • Calcium phosphate particles • Lysozyme, MP biomedicals LLC. Product No. ICN10083405 • Phosphoric acid, Fisher Scientific, Product No. A260500 Methods: • i. 364.7 mg of Lysozyme as dissolved in 18.01 ml of water (20.25 mg/ml). • ii. 0.8 g of calcium phosphate particles were mixed with 4 ml of water, and the pH of the suspension was adjusted to neutral with diluted phosphoric acid. • iii. 4 ml of Lysozyme solution (20.25 mg/ml) was added to the suspension of calcium phosphate particles to achieve a final concentration of 10.124 mg/ml, and a final volume of 8 ml. The final pH was measured. • iv. The suspension was mixed for 30 min, and centrifuged at 2000×g for 10 min in a bench top centrifuge. • v. The absorbance of supernatant was measured at 280 nm (the detection wavelength for Lysozyme) by UV spectrophotometer. • vi. […]

[10] = pH dependent release of lysozyme from lysozyme calcium phosphate complexes; format: physicochemical; details: flow 1 mL/hr, 8 hours
Description: In the stratum corneum, the pH ranges from approximately 4.3 to 5.0 with pH […] with stratum corneum depth. To study calcium phosphate particle release active agent at conditions analogous to skin, two lysozyme calcium phosphate complexes were exposed to buffers of ph 4.8 (0.5 M sodium acetate) and 7.0 (10 mM Bis Tris) for 8 hours. The buffers flowed through the samples at a rate of 1 mL/hr and were collected hourly and analyzed for lysozyme release by monitoring the peak at 280 nm by UV spectrometer. An equivalent mass of lysozyme Calcium phosphate particles complex was vortexed in pH 4.8 buffer to estimate the total available lysozyme in the sample.

[11] = Franz cell transdermal delivery through pig skin; format: in vitro ADME; details: for penetration through skin (riboflavin metabolite in receptor fluid): 8 and 16 hours
Description: Controlled Slow Release of Active Agents by Franz Cell • Purpose: The purpose of this study was to detect riboflavin from riboflavin attached to calcium phosphate particles. Methods: • Circular 6 cm^2 discs of full-thickness pig skin were cut from a larger abdominal specimen. Fat was removed from the dermis-side by scissors and the skin was stored at −20° C. until use. The skin was affixed between the two compartments of the glass diffusion cell (Laboratory Glass Apparatus, Model #LG-1084-LPCT). This allowed an exposed skin area of 5 cm^2 over a receptor compartment volume of 4.5 ml. The diffusion cell was maintained at 37° C.
Penetration Conditions • Topical application intervals were 8 and 16 hrs. The cells were covered with parafilm and shielded from light by aluminum wrap. A receptor fluid of phosphate buffered saline (PBS) was spun at 60 rpm.
Applied Formulations • Riboflavin monophosphate-calcium phosphate particles were prepared to deliver 0.35-1.15 mg riboflavin (20-38% suspensions). • Riboflavin monophosphate in PBS was prepared at 1.5 mg/mL to deliver 0.3-0.45 mg riboflavin. • Formulations were applied by pipette in volumes of 50-100 μl. Riboflavin-calcium phosphate complex applications were allowed to air dry and then equal volume of 0.5 M sodium acetate buffer was pipetted onto the application site. […]
Sample Collection • The skin surface, while still retained in the diffusion cell, was washed twice with 1 mL PBS each time. The skin was removed from diffusion cell and dried and analyzed.
Sample Analysis • Washes and Receptor fluid: The approximate volume of the fluids was determined. […] The supernatant was then removed and analyzed by UV spectrometer. If the UV absorbance was saturated (over >2.0), the samples were diluted with water. The UV absorbance value at 370 nm was recorded. • Skin: The skin was minced and mixed with 5 ml of 10% trichloracetic acid solution. […] If the UV absorbance was saturated (over >2.0), samples were diluted with water. The maximum UV absorbance value at 370 nm was recorded.

Compound: Cc1c(C)c2c(c(C)c1OP(=O)([O-])OC1=C(O)[C@@H]([C@@H](O)CO)OC1=O)CC[C@@](C)(CCC[C@H](C)CCC[C@H](C)CCCC(C)C)O2.[K+] (racemic) [Sepivital, dl-a-tocopheryl 2 L ascorbyl phosphate]
- Optimum pH ([1]; Loading Solvent Water): 7

Compound: COc1ccc(-c2ccc3cc(C(=O)O)ccc3c2)cc1C12CC3CC(CC(C3)C1)C2 [Adapalene]
- Binding capacity of Adapalene to calcium phosphate particles ([2]; in DMSO): 12.55 mg/g
- Binding capacity of Adapalene to calcium phosphate particles ([2]; in ethanol): 0.78 mg/g
- Optimum pH ([1]; Loading Solvent DMSO): 7
- Optimum pH ([1]; Loading Solvent Ethanol): 11 and 7
- saturated solution concentration ([3]; in DMSO): 20.65 mg/mL
- saturated solution concentration ([3]; in ethanol): 0.087 mg/mL

Compound: O=C1O[C@H]([C@@H](O)CO)C(O)=C1O [Ascorbic acid]
- activity of ascorbic acid, 2 um ([4]; 0 hrs): 100%
- activity of ascorbic acid, 2 um ([4]; 0.5 hrs): 85%
- activity of ascorbic acid, 2 um ([4]; 2 hrs): 59%
- activity of ascorbic acid, 2 um ([4]; 3 hrs): 48%
- activity of ascorbic acid, 2 um ([4]; 5 hrs): 35%
- activity of ascorbic acid, Control ([4]; 0 hrs): 100%
- activity of ascorbic acid, Control ([4]; 0.5 hrs): 36%
- activity of ascorbic acid, Control ([4]; 2 hrs): 18%
- activity of ascorbic acid, Control ([4]; 5 hrs): 0%
- Optimum pH ([1]; Loading Solvent Water): >8.12

Compound: Oc1ccc(C=Cc2cc(O)cc(O)c2)cc1 [Resveratrol]
- Optimum pH ([1]; Loading Solvent Ethanol/water): 10

Compound: O=C1O[C@H]([C@@H](O)CO)C([O-])=C1OP(=O)([O-])[O-].[Na+].[Na+].[Na+] [STAY-C50, Sodium Ascorbyl Phosphate]
- delivery depth in stratum corneum ([5]; STAY C50-calcium phosphate particle formulation): 10th layer of stratum corneum

Compound: O=C(O)c1ccccc1O [Salicylic acid]
- Salicylic acid Bound ([6]; pH 5.99): 0 µg/g
- Salicylic acid Bound ([6]; pH 7.07): 23.8 µg/g
- Salicylic acid Bound ([6]; pH 7.47): 97.5 µg/g
- Salicylic acid Bound ([6]; pH 8.34): 660.4 µg/g
- Salicylic acid Bound ([6]; pH 11.36): 1141.14 µg/g
- Optimum pH ([1]; Loading Solvent Ethanol/water): 4.03-7.90

Compound: Cc1c(C)c2c(c(C)c1OP(=O)([O-])[O-])CCC(C)(CCCC(C)CCCC(C)CCCC(C)C)O2.[Na+].[Na+] (stereo not shown) [TPNa, Sodium Tocopheryl Phosphate]
- TPNa in the binding suspension attached to calcium phosphate particles ([7]; 0.5 mg/ml TPNa in water): Approximately 100%
- integrity of released TPNa (UV spectroscopy) ([7]; released in 60% ethanol): identical to an unbound control

Compound: Acetyl Hexapeptide-8 [Argireline]
- Optimum pH ([1]; Loading Solvent Water): 6.7-7.8 and 7.8 and 6.4
- Argireline bound ([8]; No pretreatment, pH 7.39): 0.09 mg/g
- Argireline bound ([8]; No pretreatment, pH 10.46): 0.05 mg/g
- Argireline bound ([8]; SLS treated particles, pH 7.85): 1.19 mg/g
- Argireline bound ([8]; SLS treated particles, pH 10.10): 2.15 mg/g

Compound: Hyaluronic acid Sodium salt
- Optimum pH ([1]; Loading Solvent Water): 7

Compound: Lysozyme: Lysozyme, MP biomedicals LLC
- Lysozyme bound to calcium phosphate particles [9]: 6.8 mg/g
- lysozyme release from calcium phosphate particles ([10]; pH 4.8 (0.5 M sodium acetate)): most of the lysozyme releasing within the first hour
- lysozyme release from calcium phosphate particles ([10]; pH 7.0 (10 mM Bis Tris)): no lysozyme is observed released
- depth of detection ([5]; lysozyme-calcium phosphate particle formulation): 6 tape strips

Compound: Riboflavin monophosphate
- release rate of the active versus aqueous solution ([11]; calcium phosphate particle complex): slower release of the active
- penetration through skin (riboflavin metabolite in receptor fluid) ([11]; from aqueous solution (PBS)): penetrated through skin
- penetration through skin (riboflavin metabolite in receptor fluid) ([11]; from calcium phosphate particle complex): penetrated through skin
